Earlier results in US20120035233A1 (priority 2009, published 2012).
Where two headings read alike, the source gives them in different places.

## Clc1ccc(COC(Cn2ccnc2)c2ccc(Cl)cc2Cl)c(Cl)c1 (centres unmarked) [Miconazole Nitrate, 1-[2-(2,4-Dichlorophenyl)-2-[(2,4-dichlorophenyl)methoxy]ethyl]-1H-imidazole]
chloroform
  solubility: slightly soluble
Ethanol (95%)
  solubility: slightly soluble
ether
  solubility: very slightly soluble
methanol
  solubility: freely soluble
water
  solubility: very slightly soluble
